Test system: Untransfected HEK293 cells
Assay: Fluorescence recovery after photobleaching (FRAP), lateral membrane diffusion
Details: in cell membrane
Experimental: The second experiment was aimed at determining the lateral membrane diffusion properties of IVM using the fluorescence recovery after photobleaching (FRAP) technique. After a 30-min equilibration time, 5 cells were monitored for fluorescence recovery within a bleached circular patch of membrane of 3.7 μm diameter (Fig 8C). Any bleaching and recovery of the surrounding area of the cell was measured, using a similar circular patch and used to correct the recovery rate of the membrane delineated by the bleached area. We also noted that the recovery reached 98 ± 2% of control. The time constant (τ) for recovery of 1.3 minutes was used to calculate the diffusion coefficient (D), using the radius (r) of the bleached patch, according to D = r^2/4τ. The calculated value of D was 1.1 x 10^−2 μm^2s^−1. Over the course of 1 s, the IVM-bdpy probe would traverse 0.2 μm along the membrane surface (lateral diffusion rate of 0.2 μms^−1). […] We infer that this slow lateral diffusion rate coupled to membrane partitioning are the major contributors to local increases of IVM around its target binding sites and the slow quasi-irreversible actions of IVM at GluClRs.
Membrane partitioning and FRAP experiments were performed on an LSM 710 inverted 2-photon confocal microscope equipped with a 40X water immersion objective lens (1.2 NA/280 μM WD/0.208 μM/pixel and a GFP/Alexa 488 filter set. Untransfected HEK293 cells at a confluency of 50–75% were plated onto 35-mm glass bottom dishes one day prior to experiments. The IVM-bdpy fluorophore was dissolved in 100% DMSO and stored at ‐20°C at a concentration of 24 mM.
A Mai Tai eHP 2-photon laser/760-1040 nm was used as an excitation source (power at 920 nm) for the FRAP experiments. The laser and bleaching power were set to 7% and 75% respectively. Membrane partitioning images were taken for 35 min at 0.5 Hz after replacing the cell medium (extracellular solution) with one containing the IVM-bdpy probe at a concentration of 500 nM. FRAP images were taken at a frequency of 0.5 Hz for 10 min after a 30 min equilibration period in 500 nM IVM-bdpy.

CC[C@H](C)[C@H]1O[C@]2(CC[C@@H]1C)C[C@@H]1C[C@@H](C/C=C(\C)[C@@H](O[C@H]3C[C@H](OC)[C@@H](O[C@H]4C[C@H](OC)[C@@H](O)[C@H](C)O4)[C@H](C)O3)[C@@H](C)/C=C/C=C3\CO[C@@H]4[C@H](O)C(C)=C[C@@H](C(=O)O1)[C@]34O)O2 [IVM, Ivermectin]
lateral diffusion rate: 0.2 μms^−1
